Experimental data as given in patent publication US7524639B2, “Assay for screening antipsychotic drugs” (priority 2003, dated 2009).
Read-outs that look alike come from different tables or passages of the source.

Assays:
[1] = biological target: T1, rat 5-HT2A receptor tagged with EGFP (Rattus norvegicus, UniProt P14842); experiment: Internalization of GFP-tagged 5-HT2A receptor in transiently transfected, differentiated N1E-115 neuronal cells, confocal fluorescence microscopy; format: cell-based; conditions: drug applied for 10 mins, cycloheximide present
T1 construct: tagged at the C-terminus of the full-length rat 5-HT2A receptor (SR2-GFP); expressed in transfected cells; transiently transfected, differentiated N1E-115 cells (A2)
Description: A laser-scanning confocal microscope (Model MRC1024—BioRad) attached to a Nikon inverted microscope (Nikon eclipse TE300) and Lasersharp acquisition software were used in this case. A 60× oil immersion objective (NA=1.4) and 20× objective (NA=0.75) were used with laser power at 30% in all studies. […] Images were processed with Adobe Photoshop software using identical values for contrast and brightness. Typically 100-150 cells were randomly chosen and imaged in any one experiment and all experiments were repeated at least three times. In all experiments, cycloheximide was present until the cells were fixed. The number of cells that show internalized fluorescence and the pattern of fluoresence were estimated.
To study internalization of the 5-HT2A receptor in N1E-115 cells, undifferentiated N1E-115 cells grown on cover slip dishes cells were plated onto poly-DL-ornithine (20 μg/ml)—coated coverslip dishes and grown to 60-70% confluency. These cells were transfected with 2 μg of the SR2-GFP DNA mixed with 10 μg of lipofectamine in 1 ml OptiMEM media. 24 hrs after transfection, differentiation medium (1% DMSO+1% FBS+1% AB-AM mix in DMEM) was added in place of 10% DMEM. After 3 days, differentiated cells formed long neurites.

[2] = biological target: T1, rat 5-HT2A receptor tagged with EGFP; experiment: Internalization of GFP-tagged 5-HT2A receptor in SB1 cells (HEK293 stable line), confocal fluorescence microscopy; format: cell-based; conditions: drug applied for 10 mins, cycloheximide present
Protocol: Generation of SR2-GFP receptor and HEK293 cells stably expressing SR2-GFP receptors: Enhanced green fluorescence protein (EGFP) had been tagged at the C-terminus of the full-length rat 5-HT2A receptor (SR2-GFP) and a stable line, SB-1, expressing fluorescent SR2-GFP receptors was established in the HEK293 cell line.
In order to study internalization of the 5-HT2A receptor in SB1 cells, cells were plated onto poly-DL-ornithine (20 μg/ml)—coated coverslip dishes and grown to 60-70% confluency. After 24 hrs in culture, cells were washed twice with serum free-DMEM to remove endogenous 5-HT present in serum. Protein synthesis was then blocked with cycloheximide at 100 μg/ml for 5 hrs to eliminate fluorescence from receptors being synthesized and present in the Golgi. […] Antipsychotics or an agonist such as serotonin (i.e. positive control) at the desired concentrations in DMEM were then applied for 10 mins. At the end of this period, cells were fixed in 4% paraformaldehyde in phosphate buffered saline (PBS) for 30 min, washed with PBS and imaged using a confocal microscope as described below.

[3] = values from Goodman & Gilman's (Baldessarini and Tarazi 2001) or other published medical sources, cited from earlier work

T1 sequence (P14842 whole entry): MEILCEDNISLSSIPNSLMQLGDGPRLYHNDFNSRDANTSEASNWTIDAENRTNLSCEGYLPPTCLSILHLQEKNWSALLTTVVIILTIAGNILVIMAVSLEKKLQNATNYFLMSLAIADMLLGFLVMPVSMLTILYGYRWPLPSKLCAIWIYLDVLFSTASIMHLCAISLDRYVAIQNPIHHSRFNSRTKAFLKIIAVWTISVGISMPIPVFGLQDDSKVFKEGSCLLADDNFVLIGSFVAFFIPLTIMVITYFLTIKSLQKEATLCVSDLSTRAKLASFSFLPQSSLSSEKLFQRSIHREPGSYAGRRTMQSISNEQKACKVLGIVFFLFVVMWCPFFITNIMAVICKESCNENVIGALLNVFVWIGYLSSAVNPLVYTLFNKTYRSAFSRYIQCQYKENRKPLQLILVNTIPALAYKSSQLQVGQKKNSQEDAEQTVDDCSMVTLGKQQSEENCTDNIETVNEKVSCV

Compound	Receptor internalization N1E-115 cells (pattern of internalization) [1]	Receptor internalization SB1 cells (pattern of internalization) [2]	Extrapyramidal side effects (EPS) [3]	further results
O=C1CCc2ccc(OCCCCN3CCN(c4cccc(Cl)c4Cl)CC3)cc2N1 [Aripiprazole]	Type A	Type A	Very low	–
CN1CCN(C2=Nc3cc(Cl)ccc3Nc3ccccc32)CC1 [Clozapine]	–	–	Very low	Extrapyramidal side effects (EPS) ([3]; listed as clozapine): negligible
OCCN1CCN(CCCN2c3ccccc3Sc3ccc(C(F)(F)F)cc32)CC1 [Fluphenazine]	–	–	Very high	Extrapyramidal side effects (EPS) ([3]; listed as fluphenazine): severe
O=C(CCCN1CCC(O)(c2ccc(Cl)cc2)CC1)c1ccc(F)cc1 [Haloperidol]	–	–	Very high	Extrapyramidal side effects (EPS) ([3]; listed as haloperidol): severe
CN1CCN(C2=Nc3ccccc3Oc3ccc(Cl)cc32)CC1 [Loxapine]	–	–	Moderate	–
Cc1cc2c(s1)Nc1ccccc1N=C2N1CCN(C)CC1 [Olanzapine]	–	–	Very low	Extrapyramidal side effects (EPS) ([3]; listed as olanzapine): negligible
OCCOCCN1CCN(C2=Nc3ccccc3Sc3ccccc32)CC1 [Quitapine]	–	–	Very low	–
Cc1nc2n(c(=O)c1CCN1CCC(c3noc4cc(F)ccc34)CC1)CCCC2 [Risperidone]	–	–	Moderate	–
O=C1Cc2cc(CCN3CCN(c4nsc5ccccc45)CC3)c(Cl)cc2N1 [Ziprasidone]	Type B	Type B	Moderate	–
OCCN1CCN(CC/C=C2/c3ccccc3Sc3ccc(Cl)cc32)CC1 [Zuclopenthixol]	Type B	Type C	Moderate	–
